This is an account of results in PubChem BioAssay AID330 (DTP/NCI, 2004).

The assay relates to P388 leukemia ip, CD2F1 mice, survival T/C. Put plainly: NCI In Vivo Anticancer Drug Screen. Data for tumor model P388 Leukemia (intraperitoneal) in CD2F1 (CDF1) mice. Conditions: endpoint: median survival time, higher = longer survival. The gist of the method:
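Mice carrying the transplanted tumor received test compound or vehicle. Survival was recorded in each group, and the value is the treated-group measurement divided by that of the vehicle-treated control group.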

The mark [1] stands for this setting: dose: 100.0 mg/kg/injection, schedule: Q04DX003 (ip), vehicle: Klucel (hydroxypropylcellulose) (HPC).
Setting [2] is: dose: 200.0 mg/kg/injection, schedule: Q04DX003 (ip), vehicle: Klucel (hydroxypropylcellulose) (HPC).
The mark [3] stands for this setting: dose: 400.0 mg/kg/injection, schedule: Q04DX003 (ip), vehicle: Klucel (hydroxypropylcellulose) (HPC).
Setting [4] is: dose: 50.0 mg/kg/injection, schedule: Q01DX009 (ip), vehicle: saline with Tween-80.
Where [5] appears, read: dose: 100.0 mg/kg/injection, schedule: Q01DX009 (ip), vehicle: saline with Tween-80.
Setting [6] is: dose: 200.0 mg/kg/injection, schedule: Q01DX009 (ip), vehicle: saline with Tween-80.
The mark [7] stands for this setting: dose: 60.0 mg/kg/injection, schedule: Q01DX005 (ip), vehicle: saline with Tween-80.
The mark [8] stands for this setting: dose: 120.0 mg/kg/injection, schedule: Q01DX005 (ip), vehicle: saline with Tween-80.
Where [9] appears, read: dose: 240.0 mg/kg/injection, schedule: Q01DX005 (ip), vehicle: saline with Tween-80.

Each structure is given as a SMILES string. Several values for one entry are separate records, joined by “and”; a condition that tells them apart may be missing. Equal entries are not always repeated. Toxic doses and inconclusive results are not listed. Numbered stars: 1 amine (or outer) side, 2 acyl side, 3 side chain; on linkers, the order of the positions; unused ones are H or OH. Square brackets hold non-standard residues; d marks the D form. Peptide text beside a SMILES is read from it. * marks the point of attachment. ξ: configuration not given here. X4 = CCC(=O)CC(O)CC(C)CC(N[*:1])C(=O)[*:2]; ξLeu(3ξ-OH) = CC(C)C(O)C(N)C(=O)O; ξPro(4ξ-Me) = CC1CNC(C(=O)O)C1; X3 = CCC(C)/C=C/C(=O)*; Aib = CC(C)(N)C(=O)O; X5 = CC(CN(C)C)N*; βAla = NCCC(=O)O

`COc1c(OC(C)=O)c(OC(C)=O)cc2c1-c1ccc(SC)c(=O)cc1C(NC(C)=O)CC2` (stereo not drawn): the T/C runs as follows: (dose: 1.25 mg/kg/injection, schedule: Q01DX009 (ip), vehicle: Klucel (hydroxypropylcellulose) (HPC)) 118 % of control; (dose: 5.0 mg/kg/injection, schedule: Q01DX009 (ip), vehicle: Klucel (hydroxypropylcellulose) (HPC)) 150 % of control; (dose: 10.0 mg/kg/injection, schedule: Q01DX009 (ip), vehicle: Klucel (hydroxypropylcellulose) (HPC)) 169 % of control and 185 % of control; (dose: 20.0 mg/kg/injection, schedule: Q01DX009 (ip), vehicle: Klucel (hydroxypropylcellulose) (HPC)) 178 % of control.

Regarding `Cc1cccc(C)c1N=Cc1ccc([N+](=O)[O-])cc1`, the T/C runs as follows: (dose: 50.0 mg/kg/injection, schedule: Q01DX009 (ip), vehicle: saline) 100 % of control; (dose: 100.0 mg/kg/injection, schedule: Q01DX009 (ip), vehicle: saline) 99 % of control; (dose: 200.0 mg/kg/injection, schedule: Q01DX009 (ip), vehicle: saline) 102 % of control.

Regarding `CC(=O)OCC1C(OC(C)=O)C(OC(C)=O)C(COC(C)=O)N1C(C)=O` (stereo not drawn), the T/C is 90 % of control under setting [1], 90 % of control under setting [2] and 87 % of control under setting [3].

Turning to `CC(C)(C)OC(=O)NC(CO)C(=O)O` (stereo not drawn), the T/C runs as follows: under setting [4], 96 % of control; under setting [5], 96 % of control; under setting [6], 99 % of control.

As to `CCOC(=O)/C(C#N)=C\c1ccc(/C=C(\C#N)C(=O)OCC)cc1`, the T/C (dose: 25.0 mg/kg/injection, schedule: Q01DX009 (ip), vehicle: saline with Tween-80) was 90 % of control; the T/C under setting [4] was 100 % of control; the T/C under setting [5] is 90 % of control; the T/C (dose: 100.0 mg/kg/injection, schedule: Q04DX003 (ip), vehicle: saline with Tween-80) is 95 % of control.

Turning to `COc1ccc(OC)c(NC(=O)CCCC(=O)C(C#N)c2ccccc2C)c1` (stereo not drawn), the T/C by setting is: under setting [7], 105 % of control; under setting [8], 105 % of control; under setting [9], 104 % of control.

For `CCOC(=O)CC1(C)NC(=O)NC1=O` (stereo not drawn), the T/C reads like this: (dose: 50.0 mg/kg/injection, schedule: Q04DX003 (ip), vehicle: Klucel (hydroxypropylcellulose) (HPC)) 108 % of control; under setting [1], 100 % of control; under setting [2], 101 % of control; under setting [3], 100 % of control.

For the compound `c1ccc2c3[n+](ccc2c1)CCC[n+]1ccc2ccccc2c1-3`, the T/C is 106 % of control (dose: 3.12 mg/kg/injection, schedule: Q01DX001 (ip), vehicle: saline); 106 % of control (dose: 6.25 mg/kg/injection, schedule: Q01DX001 (ip), vehicle: saline); 92 % of control (dose: 12.5 mg/kg/injection, schedule: Q01DX001 (ip), vehicle: saline).

Regarding `CC(C)(C)C1CC=CC(=O)CC1` (stereo not drawn), the T/C runs as follows: (dose: 100.0 mg/kg/injection, schedule: Q01DX009 (ip), vehicle: Klucel (hydroxypropylcellulose) (HPC)) 111 % of control; (dose: 200.0 mg/kg/injection, schedule: Q01DX009 (ip), vehicle: Klucel (hydroxypropylcellulose) (HPC)) 119 % of control.

For `CCC(=O)CC(O)CC(C)CC(NC(=O)C1CC(C)CN1C(=O)/C=C/C(C)CC)C(=O)NC(C(=O)NC(C)(C)C(=O)NC(CC(C)C)C(=O)NC(CC(C)C)C(=O)NC(C)(C)C(=O)NC(C)(C)C(=O)NCCC(=O)NC(C)CN(C)C)C(O)C(C)C` (stereo not drawn) (X3-[ξPro(4ξ-Me)][X4][ξLeu(3ξ-OH)][Aib]LL[Aib][Aib][βAla]-X5; configuration not given here), the T/C was 101 % of control (dose: 50.0 micrograms/kg/injection, schedule: Q01DX005 (ip), vehicle: saline + alcohol); 101 % of control (dose: 100.0 micrograms/kg/injection, schedule: Q01DX005 (ip), vehicle: saline + alcohol); 101 % of control (dose: 200.0 micrograms/kg/injection, schedule: Q01DX005 (ip), vehicle: saline + alcohol); 111 % of control (dose: 400.0 micrograms/kg/injection, schedule: Q01DX005 (ip), vehicle: saline + alcohol); 110 % of control (dose: 800.0 micrograms/kg/injection, schedule: Q01DX005 (ip), vehicle: saline + alcohol).

Turning to `Cc1cc2c(cc1C)C(=O)CCC(=O)N2`, the T/C reads like this: under setting [7], 102 % of control; under setting [8], 97 % of control; under setting [9], 96 % of control.

For `CC(C)(C)C1=NC(c2ccccc2)N2C(c3ccccc3)NC(c3ccccc3)C1C2c1ccccc1` (stereo not drawn), the T/C was 100 % of control under setting [4], 93 % of control under setting [5] and 91 % of control under setting [6].

With `COC(=O)c1nc2nnc(NC(=O)Nc3ccc(Cl)cc3)n2c(-c2ccc(Cl)cc2)c1C`, the T/C runs as follows: under setting [7], 99 % of control; under setting [8], 99 % of control; under setting [9], 100 % of control.

Consider `CCOC(=O)/C(Cl)=C(\C)Nc1nc2c(ccc3ccccc32)s1`, for which the T/C by setting is: under setting [7], 98 % of control; under setting [8], 90 % of control.

Turning to `CN1C2C=C(c3ccc(C(F)(F)F)cc3)CC1CC2` (stereo not drawn), the T/C runs as follows: (dose: 25.0 mg/kg/injection, schedule: Q01DX005 (ip), vehicle: Klucel (hydroxypropylcellulose) (HPC)) 100 % of control and 107 % of control; (dose: 50.0 mg/kg/injection, schedule: Q01DX005 (ip), vehicle: Klucel (hydroxypropylcellulose) (HPC)) 106 % of control; (dose: 50.0 mg/kg/injection, schedule: Q01DX005 (ip), vehicle: saline) 102 % of control; (dose: 100.0 mg/kg/injection, schedule: Q01DX005 (ip), vehicle: Klucel (hydroxypropylcellulose) (HPC)) 98 % of control; (dose: 100.0 mg/kg/injection, schedule: Q01DX005 (ip), vehicle: saline) 104 % of control.

With `COc1ccc(C2C3=C(CCCC3=O)Oc3cc4c(cc32)OCO4)c(OC)c1` (stereo not drawn), the T/C is 99 % of control under setting [7], 90 % of control under setting [8] and 90 % of control under setting [9].

Turning to `CSc1nc(COC(=O)NC(C)C)c(COC(=O)NC(C)C)n1-c1ccccc1`, the T/C reads like this: (dose: 12.5 mg/kg/injection, schedule: Q01DX005 (ip), vehicle: Klucel + Tween-80) 111 % of control; (dose: 25.0 mg/kg/injection, schedule: Q01DX005 (ip), vehicle: Klucel + Tween-80) 101 % of control; (dose: 50.0 mg/kg/injection, schedule: Q01DX005 (ip), vehicle: Klucel + Tween-80) 95 % of control; (dose: 100.0 mg/kg/injection, schedule: Q01DX005 (ip), vehicle: Klucel + Tween-80) 97 % of control; (dose: 200.0 mg/kg/injection, schedule: Q01DX005 (ip), vehicle: Klucel + Tween-80) 90 % of control; (dose: 400.0 mg/kg/injection, schedule: Q01DX005 (ip), vehicle: Klucel + Tween-80) 100 % of control.

In the case of `O=[N+]([O-])c1ccc(Oc2c3ccccc3nc3ccccc23)cc1`, the T/C (dose: 50.0 mg/kg/injection, schedule: Q01DX005 (ip), vehicle: saline with Tween-80) was 90 % of control; the T/C (dose: 100.0 mg/kg/injection, schedule: Q01DX005 (ip), vehicle: saline with Tween-80) is 90 % of control; the T/C (dose: 200.0 mg/kg/injection, schedule: Q01DX005 (ip), vehicle: saline with Tween-80) is 93 % of control.

Turning to `COC1/C=C/OC2(C)Oc3c(C)c(O)c4c(O)c(c(/C=N/N(C)c5nc6c(N)ncnc6n5C5OC(CO)C(O)C5O)c(O)c4c3C2=O)NC(=O)C(C)=C/C=C/C(C)C(O)C(C)C(O)C(C)C(OC(C)=O)C1C` (stereo not drawn), the T/C was 101 % of control under setting [4], 97 % of control under setting [5] and 101 % of control under setting [6].

Consider `O=C(O)Cc1c[nH]c2c(Cl)ccc(Cl)c12`, for which the T/C was 101 % of control (dose: 100.0 mg/kg/injection, schedule: Q01DX001 (ip), vehicle: saline with Tween-80) and 100 % of control (dose: 200.0 mg/kg/injection, schedule: Q01DX001 (ip), vehicle: saline with Tween-80).

`C1C[S][Hg][S]CCO1`: the T/C reads like this: (dose: 6.25 mg/kg/injection, schedule: Q01DX009 (ip), vehicle: suspension in saline) 105 % of control; (dose: 12.5 mg/kg/injection, schedule: Q01DX009 (ip), vehicle: suspension in saline) 102 % of control.

Turning to `CC1(C)N=C(N)N=C(N)N1c1ccc(OCc2ccc(C(=O)Nc3cccc(S(=O)(=O)F)c3)cc2)c(Cl)c1`, the T/C runs as follows: (dose: 50.0 mg/kg/injection, schedule: Q04DX003 (ip), vehicle: saline) 181 % of control; (dose: 100.0 mg/kg/injection, schedule: Q04DX003 (ip), vehicle: saline) 86 % of control.

Regarding `CSc1cccc(NC(=O)Oc2ccc(Br)cc2)c1`, the T/C under setting [4] was 91 % of control, the T/C under setting [5] was 93 % of control and the T/C under setting [6] was 101 % of control.

Take `CCOC(=O)/C(C#N)=C(\CC)c1cc(Cl)cc(Cl)c1O`: the T/C under setting [7] is 100 % of control, the T/C under setting [8] was 90 % of control and the T/C under setting [9] is 96 % of control.

As to `C=C(C(N)=O)C(N)C(=O)O` (stereo not drawn), the T/C under setting [7] was 120 % of control.
